The test system of experiment [1] is unselected depression patients. The note with it: meta-analytically calculated; cited from earlier work.
For experiment [2], the system named is patients with major depressive disorder. In words: Open-label trials of adjunctive agomelatine 25 mg at bedtime in MDD (NCT05118750, NCT05157945): MADRS change by EEG-predicted response. Format: in vivo, human. As for the experimental part: The inventors conducted two parallel open-label clinical trials of agomelatine at 25 mg once at bedtime in patients with major depressive disorder (NCT05118750 and NCT05157945, whose data was pooled in these analyses). […] Patients were evaluated over the course of eight weeks of treatment.
EEG data were collected at rest (encompassing both eyes open and eyes closed conditions) prior to treatment using a 19-channel EEG system covering the conventional 10-20 electrode locations. A total of 107 patients with moderate to severe depression (MADRS≥20 and PHQ-9≥10) had EEG data (107 with eyes open (REO) EEG, 105 with eyes closed (REC) EEG). Quality control assessments were conducted, yielding 105 REO patient datasets and 103 REC patient datasets. […] The training dataset consisted of 60 REO patient datasets and 60 REC patient datasets. The holdout set consisted of 49 REO patient datasets and 46 REC patient datasets.
In order to compile these individual signals into a single EEG composite entropy model for prediction of treatment outcome, the inventors conducted 10-fold cross-validated machine learning using elastic net regularization against an outcome of high versus low response to agomelatine. […]
The Cohen's d effect sizes at these weeks are all >0.4, indicating a substantial effect size for the prediction, especially considering that the meta-analytically calculated all-comer (i.e., unselected depression patients) effect size for the difference in treatment response to agomelatine (as monotherapy) versus placebo is d=0.26 (Cipriani et al., Lancet., 2018, 391 (10128): 1357-1366, PMID: 29477251).
Given the approximate 50% prevalence of positivity on the EEG machine learning model, one can estimate the agomelatine-placebo difference in EEG-predicted agomelatine responders by adding the all-comer effect size (d=0.26) to the enrichment in EEG-predicted responders over the all-comer population. This enrichment is calculated by halving the effect size between EEG-predicted responders and non-responders, since the average of these two groups is the all-comer population. […]

Another experiment relates to circadian rhythm. The note with it: due to melatonergic agonism; cited from earlier work.
The test system of another experiment is sleep measures. Conditions: in contrast to an SSRI which did not change these measures; cited from earlier work.

Structures are written as SMILES.

As for `COc1ccc2cccc(CCNC(C)=O)c2c1` [agomelatine, N-[2-(7-methoxynaphthalen-1-yl)ethyl]acetamide], the “all-comer effect size d, treatment response to agomelatine (as monotherapy) versus placebo” value in experiment [1] is 0.26. Further, in experiment [2] (EEG sample entropy machine learning model, cross-validation left-out data of training dataset, all weeks (FIG. 2A)), the “Cohen's d effect size, predicted responders vs non-responders, change in MADRS scores” value is on record as > 0.4. Moreover, in experiment [2] (EEG sample entropy model, holdout dataset, weeks 4, 6 and 8 (FIG. 2B)), the “Cohen's d, predicted agomelatine responders versus non-responders, observed change in MADRS scores” value is reported as > 0.4. For the same compound, the “MADRS change, high vs low Pz low-gamma sample entropy patients” value in experiment [2] (Pz electrode, 30-40 Hz, z≥0.27, full study sample, all weeks (FIG. 2C)) was “strong and statistically significant prediction of treatment outcome across all weeks”. The “effect on circadian rhythm” value in the experiment with circadian rhythm is listed as “phase advance circadian rhythm”. The “sleep measures assessed using actigraphic measurements” value in the experiment on sleep measures was “improve sleep measures”.

On to `COc1ccc2[nH]cc(CCNC(C)=O)c2c1` [melatonin], for which, in the experiment with circadian rhythm, the “effect on circadian rhythm” value is listed as “phase advance circadian rhythm”.

Source of the values: US12226375B1, “Method of treatment and selection of patients benefiting from agomelatine based on EEG measurements” (Alto Neuroscience, Inc., priority 2023, dated 2025).
